Experimental data published in PubChem BioAssay (NCI).
Where “and” joins values, the source holds several entries; their conditions need not be identical. Equal values may be shown once.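 Following 48 hours of exposure in 96-well plates, responses at five concentrations were used to interpolate endpoints linearly. GI50: concentration for 50% inhibition of growth. The concentration for full growth arrest is given as TGI.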

Tests used:
Assay in all cases: growth of human tumour cells (NCI), 48 h
[1] = test system: A498 renal
[2] = test system: CAKI-1 renal
[3] = test system: IGROV1 ovarian
[4] = test system: LOX IMVI melanoma
[5] = test system: OVCAR-5 ovarian
[6] = test system: SK-OV-3 ovarian
[7] = test system: UACC-62 melanoma
[8] = test system: UO-31 renal
[9] = test system: BT-549 breast
[10] = test system: HS 578T breast

SMILES	TGI [1]	TGI [2]	TGI [3]	TGI [4]	TGI [5]	TGI [6]	TGI [7]	TGI [8]	GI50 [1]	GI50 [9]	TGI [9]	GI50 [2]	GI50 [10]	TGI [10]	GI50 [3]	GI50 [4]	GI50 [5]	GI50 [6]	GI50 [7]	GI50 [8]
c1ccc2cc(-c3cc4ccccc4s3)ccc2c1	> 100 µM	> 100 µM	> 100 µM	> 100 µM	> 100 µM	> 100 µM	> 100 µM	> 100 µM												
O=c1/c(=C/c2ccccc2[N+](=O)[O-])sc2nnc(-c3ccco3)n12	> 100 µM	> 100 µM	56.3 µM	31.8 µM	> 100 µM	> 100 µM	> 100 µM	96.8 µM												
OC(CC1SCCCS1)c1ccccc1 (stereo not given)	> 100 µM	> 100 µM	> 100 µM		> 100 µM	> 100 µM	> 100 µM	> 100 µM												
COC(=O)COc1ccccc1/C=C1\N=C(c2ccccc2)N(c2cc(C(F)(F)F)ccc2Cl)C1=O	> 100 µM	> 100 µM	> 100 µM	73.6 µM	> 100 µM	> 100 µM	> 100 µM	52.8 µM	> 100 µM	28.4 µM	86.2 µM	79 µM	35.6 µM	> 100 µM	57 µM	24.9 µM	> 100 µM	57.7 µM	> 100 µM	22.3 µM
CC(C)N(C(=O)C12C3C4C1C1C4(C#N)C3C12C#N)C(C)C (stereo not given)	> 100 µM	> 100 µM	> 100 µM		> 100 µM	> 100 µM	> 100 µM	> 100 µM												
CC/C=C\C[C@H](O)C/C=C1/C(=O)C(Cl)=C[C@@H]1C/C=C\CCCC(=O)OC	10.2 µM	1.89 µM	3.35 µM	0.52 µM	3.07 µM	16.5 µM	0.717 µM	1.29 µM	3.65 µM	0.341 µM	1.04 µM	0.523 µM	0.626 µM	6.76 µM	0.867 µM	0.258 µM	0.754 µM	4.72 µM	0.27 µM	0.413 µM
Nc1ccc([N+](=O)[O-])cc1N=C/C=C/c1ccccc1	64.4 µM		42.7 µM	80.7 µM	> 100 µM	> 100 µM	> 100 µM	71.4 µM	15.1 µM	12.5 µM	> 100 µM				7.48 µM	3.98 µM	81.2 µM	26.5 µM	11.9 µM	4.31 µM
CCCCC#CC1=C(Br)C(=O)OC1	33.5 µM	4.63 µM	3.33 µM		7.38 µM	> 77.2 µM	7.1 µM	3.1 µM	18.1 µM	1.8 µM	5.91 µM	1.26 µM	3.89 µM	23.1 µM	0.368 µM	0.318 µM	2.73 µM	36.1 µM	2.24 µM	1.37 µM
N=C(N)C1CN(CCc2c[nH]c3ccccc23)C(=O)NC1=O (stereo not given)	> 100 µM		> 100 µM	> 100 µM	> 100 µM	> 100 µM	> 100 µM	> 100 µM			> 100 µM									
C#CCOc1cccc(-c2ncc3cc(NC(=O)CCl)ccc3n2)c1	31 µM	3.31 µM	4.01 µM			> 100 µM	3.36 µM	2.91 µM	13.2 µM	1.47 µM	3.18 µM	1.88 µM			1.8 µM			3.58 µM	1.52 µM	1.52 µM
O=C(CCN(C(=O)O)S(=O)(=O)c1ccc(NC(=O)c2ccccc2)cc1)Nc1ccccc1	> 100 µM	> 100 µM	> 100 µM	> 71.4 µM	> 100 µM	> 100 µM	97.5 µM	> 100 µM												
Cc1c2n(c(=O)[nH]c1=O)C1OC(CO)C(O2)C1O (stereo not given)	> 100 µM	> 100 µM	> 100 µM	> 100 µM		> 100 µM	> 100 µM	> 100 µM												
NC(N)=N/N=C/c1c(-c2ccsc2)nc2sccn12	31.8 µM	21.9 µM		33.2 µM	30.3 µM	30.3 µM	29 µM	36.8 µM	17.5 µM	22.3 µM	38.1 µM	10.3 µM				17.6 µM	16.6 µM	14.3 µM	15.6 µM	20 µM
CCCCOC(=O)CNC(=O)OC/C=C/C#CC#C/C=C/COC(=O)NCC(=O)OCCCC	> 100 µM	> 100 µM	> 100 µM	> 10 µM	> 100 µM	> 100 µM	> 100 µM	> 100 µM	> 100 µM			> 100 µM			> 100 µM		> 100 µM	> 100 µM	> 100 µM	> 100 µM
NC(=S)N/N=C/C(=O)O	> 100 µM	> 100 µM	> 100 µM	> 100 µM	> 100 µM	> 100 µM		> 100 µM	> 100 µM	> 100 µM	> 100 µM	> 100 µM	> 100 µM	> 100 µM	43.6 µM	> 100 µM	> 100 µM	> 100 µM		> 100 µM
Nc1nc(Cl)cc(NCCCCCCCCNc2cc(Cl)nc(N)n2)n1		44.7 µM	> 100 µM	34.7 µM		> 100 µM	95.3 µM	> 100 µM												
CCC12CCCN(Cc3ccccc3)C1c1c(n(C)c3ccccc13)CC2 (stereo not given)		> 253 µM	> 253 µM	> 253 µM		> 253 µM	> 253 µM													
O=C1CCC2(c3ccc(Cl)cc3)Nc3ncccc3N12 (stereo not given)	> 100 µM	> 100 µM	> 100 µM	> 100 µM	> 100 µM	> 100 µM	> 100 µM	> 100 µM												
COc1ccc2occ(CCC(=O)O)c2c1	> 100 µM	> 100 µM	> 100 µM	> 100 µM		> 100 µM	> 100 µM													
CCOC(=O)C(C#N)C1=CC(=O)C(=O)c2ccc(OC)cc21 (stereo not given)	58.9 µM	72.2 µM	35.2 µM	40.7 µM	40.5 µM	56.7 µM	28.5 µM	32 µM						53.4 µM						
O=C(Nc1ccn(CCO)c(=O)n1)c1ccccc1	> 100 µM	> 100 µM	> 100 µM	> 100 µM	> 100 µM	> 100 µM	> 100 µM	> 100 µM												

SMILES	TGI [1]	TGI [2]	TGI [3]	TGI [4]	TGI [5]	TGI [6]	TGI [7]	TGI [8]	GI50 [1]	GI50 [9]	TGI [9]	GI50 [2]	GI50 [10]	TGI [10]	GI50 [3]	GI50 [4]	GI50 [5]	GI50 [6]	GI50 [7]	GI50 [8]
O=[N+]([O-])c1cccc(C2=NN(c3ccccc3)C[N+](c3ccc(Br)cc3)=N2)c1	> 100 µM	> 100 µM	> 100 µM		> 100 µM	> 100 µM	> 100 µM	> 100 µM												
Cc1ccc(SC2c3ccc(C)cc3Oc3nc(N)c(C#N)c(N)c32)cc1 (stereo not given)	7.33 µM			3.14 µM	3.45 µM	21.7 µM	3.13 µM	2.49 µM	2.72 µM	1.63 µM	3.25 µM		2.4 µM	7.64 µM		1.59 µM	1.76 µM	10.1 µM	1.61 µM	1.18 µM
CC(C)(C)NNC(=O)CCn1[nH]c(=O)c(Cl)c(Cl)c1=O	> 100 µM	> 100 µM	> 100 µM	> 100 µM	> 100 µM	> 100 µM	> 100 µM	> 100 µM												
CC1=C(C(=O)Nc2ccc(F)c(Cl)c2)C(c2ccccc2O)NC(=S)N1 (stereo not given)		> 50 µM	> 50 µM	> 50 µM	> 50 µM	> 50 µM	> 50 µM	> 50 µM		19.2 µM	49.4 µM	45.8 µM	35 µM	> 50 µM	> 50 µM	23.6 µM	> 50 µM	> 50 µM	> 50 µM	> 50 µM
CCOC(=O)c1cnc2c(ccc3[nH]n(C)nc32)c1=O	> 100 µM	> 100 µM	> 100 µM		> 100 µM	> 100 µM	> 100 µM	> 100 µM												
CO/N=C(/C)c1cccc(Nc2cc(-n3nnc4ccccc43)nc3ccccc23)c1		> 100 µM	> 100 µM		> 100 µM	> 100 µM	> 100 µM	> 100 µM		63.2 µM	> 100 µM	22.5 µM	42.8 µM	> 100 µM	> 100 µM		41.7 µM	> 100 µM	25.2 µM	> 100 µM
CCCCCCCCCCCCCC(=O)OCC(C[As](=O)(O)O)OC(=O)CCCCCCCCCCCCC (stereo not given)	> 100 µM	> 100 µM	> 100 µM			> 100 µM	> 100 µM	> 100 µM												
CC(C)CCC1CC2C(=O)N(c3ccccc3)C(=O)C2c2[nH]c3ccccc3c21 (stereo not given)	16 µM		28.4 µM	14.6 µM	31.4 µM	32.2 µM	20.9 µM	18.9 µM												
Clc1ccc2c(c1)[nH]c1c2nc2ccccn21	> 100 µM and 44.5 µM		85.8 µM and > 100 µM		> 100 µM and 30.1 µM	> 100 µM and 63.7 µM		53.7 µM and 37.5 µM									38.8 µM and 16.5 µM			
CC12C/C(=C\c3ccccc3)C(=O)C3C1CCCC32	> 100 µM	> 100 µM	> 100 µM	> 100 µM	> 100 µM	> 100 µM	> 100 µM	> 100 µM												
CC(=O)CCn1c(=S)sc2ccccc21		> 100 µM	> 100 µM	> 100 µM	> 100 µM	> 100 µM	> 100 µM	> 100 µM			> 100 µM			> 100 µM						
O=CCC1CCCCC1	> 100 µM	> 100 µM	> 100 µM	> 100 µM	> 100 µM	> 100 µM		> 100 µM			> 100 µM									
COC(=O)C(C(=O)c1ccccc1)C(C(=O)C(=O)Nc1ccc(OC)cc1OC)C(=O)C(=O)c1ccc(C)cc1 (stereo not given)	> 100 µM	> 100 µM	> 100 µM	> 100 µM	> 100 µM	> 100 µM	> 100 µM	> 100 µM												
CC(C)C(CCl)NC(=O)c1cccc(C(=O)N[C@H](CCl)C(C)C)n1 (stereo in doubt)	> 100 µM	> 100 µM	> 100 µM	> 100 µM	> 100 µM	> 100 µM		> 100 µM												
O=C1c2ccccc2C(=O)N1CCn1ccc(NC(c2ccccc2)(c2ccccc2)c2ccccc2)nc1=O	38.6 µM	> 100 µM	58.4 µM	31.8 µM	62.6 µM	> 100 µM	26 µM	52.8 µM												
N.N.N.N.O=C([O-])CCl.O=C([O-])CCl.[Co+3].[O-][Cl+3]([O-])([O-])[O-]	> 100 µM		> 100 µM	> 100 µM	> 100 µM	> 100 µM	> 100 µM	> 100 µM	> 100 µM						> 100 µM	> 100 µM	> 100 µM	> 100 µM	> 100 µM	> 100 µM
CC[As](CC)SC[C@H](C)C(=O)N1CCC[C@H]1C(=O)O	0.866 µM	0.0648 µM	1.11 µM	0.102 µM	0.735 µM	1.05 µM	0.538 µM	0.0933 µM	0.296 µM	0.0749 µM	0.515 µM	< 0.0181 µM			0.214 µM	0.0458 µM	0.245 µM	0.326 µM	0.149 µM	0.024 µM
COc1cc(-c2oc(=O)ccc2C#Cc2ccccn2)cc(OC)c1OC	> 48.3 µM	3.73 µM		> 100 µM	> 100 µM	97.7 µM	> 20.1 µM	> 100 µM	3.81 µM	4.42 µM	> 100 µM	0.563 µM	2.98 µM	> 24 µM		4.38 µM	10.5 µM	3.43 µM	1.82 µM	3.22 µM
CC(C)C1=CC23CCC4C(C)(C(=O)O)CCCC4(C)C2CC1C1C(=O)N(c2ccc(Cc4ccc(N5C(=O)C6C7CC8C9(C)CCCC(C)(C(=O)O)C9CCC8(C=C7C(C)C)C6C5=O)cc4)cc2)C(=O)C13 (stereo not given)	22.5 µM				35.8 µM		29.7 µM	31.3 µM						32.8 µM						
Cc1cn2c(=O)c3ncn(C4OC(CO)C(O)C4O)c3n(C)c2n1 (stereo not given)	> 100 µM	> 100 µM	> 100 µM	> 100 µM	> 100 µM	> 100 µM	> 100 µM	> 100 µM												
